Laboratory results reported in US20250170183A1, “METHOD FOR ENRICHING MUSE CELLS AND OBTAINING EXOSOMES, MICROVESICLES OR THE SECRETOME THEREFROM” (priority 2022, published 2025).

Test system: Carrageenan-induced paw edema
Assay: Carrageenan-induced paw edema model
Format: in vivo, C57BL/6 mice
Settings: single i.p. dose, 1.5 hours after administration; FIG. 5
Method: In order to assess the anti-inflammatory effect of the Muse cell derived EVs, various EV fractions were analyzed for anti-inflammatory efficacy using the paw edema model [16].
In our initial experiment, fifty-five female C57BL/6 mice (Charles River, Eastern Europe) were randomly assigned to one of five treatment groups: • (1) (−) Control (PBS) • (2) (+) Control (Dexamethasone: 20-30 mg/kg) • (3) EV100 (1, 10, or 100 billion EVs) • (4) EV500 (1, 10, or 100 billion EVs) • (5) Muse cell enriched culture (100K, 1 million, or 10 million cells)
Paw edema was induced in each animal by intra-plantar injection of 20 μl of a 1% (w/v) aqueous Carrageenan solution (SIGMA Aldrich) into the right hind paw.
Thirty minutes after the carrageenan injection, each animal received one dose of the control agent (treatment groups 1-2) or experimental agents (treatment groups 3-5) according to the respective assigned treatment group. The agent was administered by intra peritoneal (i.p.) injection. PBS was also used to resuspend EV100 and EV500 samples.
The intensity of the edema development and/or the amelioration thereof was assessed by measuring the paw width (the distance from one outer finger to the opposite outer finger) or paw thickness of the treated paw prior to treatment administration, and 2 h, 24 h, 48 h, and 72 h after administration of the control and experimental agents. […]

C[C@@H]1C[C@H]2[C@@H]3CCC4=CC(=O)C=C[C@]4(C)[C@@]3(F)[C@@H](O)C[C@]2(C)[C@@]1(O)C(=O)CO [dexamethasone]
paw thickness, immediate response: no effect
